According to patent US20240368667A1, “RAPID, LABEL-FREE ANTIBIOTIC SUSCEPTIBILITY OF BACTERIA DIRECTLY FROM POSITIVE BLOOD OR BODILY FLUID/CULTURE” (priority 2021, published 2024):

What was measured:
E. coli [1] = assay: Direct flow cytometric AST (high-throughput flow cytometry, HTFC) of sucrose-recovered bacteria; format: cell-based, Escherichia coli; parameters: key to susceptibility classification, HTFC: (S) sensitive; (I) intermediate; (R) resistant; settings: sucrose-recovered, antibiotic 4 hours (37° C.); for MIC: Escherichia coli, 4 h, read-out: Minimum inhibitory concentration, HTFC
Protocol: (§1) AST workflow using bacteria recovered directly from positive blood culture. A 1-mL aliquot of bacteria recovered using separation method 2 was diluted 10-fold in CAMHB, the OD600 adjusted to ˜0.01, and a 50 μL aliquot distributed into each well of a 96-well plate containing CAMHB with and without ceftazidime, tobramycin, and either meropenem (E. coli and P. aeruginosa) or oxacillin (S. aureus). Following Clinical and Laboratory Standards Institute (CLSI) guidelines^33, 2% sodium chloride (NaCl) was present in wells containing oxacillin to assist in the detection of methicillin-resistant S. aureus (MRSA). […] To account for observed differences in doubling and lag times, E. coli and P. aeruginosa were incubated for 4 hours at 37° C., while S. aureus was incubated for 9 hours at 35° C. After incubation, antibiotic plates were removed from the incubator and directly stored on ice (i.e. no post-processing) until high-throughput flow cytometry (BD LSRFortessa with HTS-system, BD, Franklin Lakes, NJ). No-antibiotic controls and antibiotic-treated samples were handled identically.
(§2) MIC Determination by flow cytometry. Because antibiotic effects are observed in both the position of scatter signatures (morphology changes) and count rates (growth inhibition), a modified count rate, accounting for scatter position, was used to evaluate susceptibility. Briefly, no-antibiotic control populations (triplicate) were pooled, binned, and a convex hull boundary set at 1-standard deviation above the background (not including bins with zero counts) was drawn. […] The overlap ratio, measuring changes in morphology, was then computed by dividing the number of sample events within the no-antibiotic control boundary by the total number of events within the sample. As an increase in count rate attributed to viable bacteria in antibiotic-treated samples is not scientifically meaningful, the fractional overlap was multiplied by the minimum of the control and sample count rates to generate a modified count rate accounting for antibiotic-induced morphological changes. All modified count rates were normalized by the average of the no-antibiotic controls. For automatic MIC determination, normalized count rates corresponding to n (index of predicted MIC), n+1, n+2 were iteratively fit to a linear function with a frameshift of n+1 between iterations (FIGS. 8 and 9). […] A threshold of −0.01 instead of zero was used to mitigate the influence of small fluctuations in normalized count rates on susceptibility determinations.

E. coli [2] = assay: Broth microdilution (BMD) MIC; format: cell-based, Escherichia coli; parameters: key to susceptibility classification, BMD: (S) sensitive; (I) intermediate; (R) resistant; settings: broth microdilution; for MIC: Escherichia coli, read-out: Minimum inhibitory concentration, BMD
Protocol: (§3) Microbroth dilution for minimum inhibitory concentrations (MIC) with and without sucrose recovery. To isolate bacteria without sucrose, culture media from positive BacT/alert FA PLUS aerobic culture bottles (bioMérieux, Durham, NC) was serially diluted and plated onto LB agar (Lennox; Sigma-Aldrich, St. Louis, MO). Bacterial suspensions were prepared by resuspending colonies in CAMHB with incubation on a MaxQ 4000 incubator shaker (Thermo Fisher Scientific, Waltham, MA) at 37° C. and ˜225 rpm for 3 hours. Bacteria recovered via Method 2 were diluted 10-fold in CAMHB. Following incubation or sucrose recovery and dilution, bacterial suspensions were adjusted to ˜0.004 OD600 with CAMHB and a 50-μL aliquot distributed to each well of a 96-well plate containing CAMHB with and without clinically relevant antibiotics (2-fold dilution series). Gram-negative plates included: ceftazidime (3rd generation cephalosporin, RPI corp., Mount Prospect, IL), cefepime (4th generation cephalosporin, Chem-Impex Int'l, Wood Dale, IL), meropenem (carbapenem, Tokyo Chemical Industry, Tokyo, Japan), levofloxacin (quinolone, Alfa Aesar, Haverhill, MA), and tobramycin (aminoglycoside, MP Biomedicals LLC, Santa Ana, CA), while S. aureus plates contained: oxacillin (beta-lactam, Sigma-Aldrich, St. Louis, MO), vancomycin (glycopeptide, Santa Cruz Biotechnology, Dallas, TX), erythromycin (macrolide, Sigma-Aldrich, St. Louis, MO), clindamycin ([…]), and ciprofloxacin (fluoroquinolone, Sigma-Aldrich, St. Louis, MO). Antibiotic plates were incubated at 37° C. for 16-20 hours (gram-negative) or 35° C. for 24 hours (S. aureus), at which time, plates were removed from the incubator and visually inspected for bacterial growth. The MIC was set at the lowest antibiotic concentration at which no growth was detected.

P. aeruginosa [3] = assay: Direct flow cytometric AST (high-throughput flow cytometry, HTFC) of sucrose-recovered bacteria; format: cell-based, Pseudomonas aeruginosa; parameters: key to susceptibility classification, HTFC: (S) sensitive; (I) intermediate; (R) resistant; settings: for MIC: Pseudomonas aeruginosa, read-out: Minimum inhibitory concentration, HTFC
Protocol: as §1, §2

P. aeruginosa [4] = assay: Broth microdilution (BMD) MIC; format: cell-based, Pseudomonas aeruginosa; parameters: key to susceptibility classification, BMD: (S) sensitive; (I) intermediate; (R) resistant; settings: for MIC: Pseudomonas aeruginosa
Protocol: as §3

[5] = P. aeruginosa Blood Culture B, antibiotic 4 hours (37° C.)
[6] = P. aeruginosa Blood Culture C, antibiotic 4 hours (37° C.)
[7] = P. aeruginosa PA7, antibiotic 4 hours (37° C.)
[8] = P. aeruginosa PA46, antibiotic 4 hours (37° C.)
[9] = P. aeruginosa PA49, antibiotic 4 hours (37° C.)
[10] = P. aeruginosa PA81, antibiotic 4 hours (37° C.)
[11] = P. aeruginosa PAO1, antibiotic 4 hours (37° C.)
[12] = 4 h, P. aeruginosa Blood Culture B, antibiotic 4 hours (37° C.)
[13] = 4 h, P. aeruginosa Blood Culture C, antibiotic 4 hours (37° C.)
[14] = 4 h, P. aeruginosa PA7, antibiotic 4 hours (37° C.)
[15] = 4 h, P. aeruginosa PA46, antibiotic 4 hours (37° C.)
[16] = 4 h, P. aeruginosa PA49, antibiotic 4 hours (37° C.)
[17] = 4 h, P. aeruginosa PA81, antibiotic 4 hours (37° C.)
[18] = PAO1, 4 h, P. aeruginosa PAO1, antibiotic 4 hours (37° C.)
[19] = P. aeruginosa Blood Culture B, broth microdilution
[20] = P. aeruginosa Blood Culture C, broth microdilution
[21] = P. aeruginosa PA7, broth microdilution
[22] = P. aeruginosa PA46, broth microdilution
[23] = P. aeruginosa PA49, broth microdilution
[24] = P. aeruginosa PA81, broth microdilution
[25] = P. aeruginosa PAO1, broth microdilution
[26] = P. aeruginosa Blood Culture B, broth microdilution, read-out: Minimum inhibitory concentration, BMD
[27] = P. aeruginosa Blood Culture C, broth microdilution, read-out: Minimum inhibitory concentration, BMD
[28] = P. aeruginosa PA7, broth microdilution, read-out: Minimum inhibitory concentration, BMD
[29] = P. aeruginosa PA46, broth microdilution, read-out: Minimum inhibitory concentration, BMD
[30] = P. aeruginosa PA49, broth microdilution, read-out: Minimum inhibitory concentration, BMD
[31] = P. aeruginosa PA81, broth microdilution, read-out: Minimum inhibitory concentration, BMD
[32] = PAO1, P. aeruginosa PAO1, broth microdilution, read-out: Minimum inhibitory concentration, BMD

CC(C)(O/N=C(\C(=O)N[C@@H]1C(=O)N2C(C(=O)[O-])=C(C[n+]3ccccc3)CS[C@H]12)c1csc(N)n1)C(=O)O [Ceftazidime, ceftazidime]
(R): susceptibility classification, HTFC (E. coli [1]; E. coli Blood Culture B) | susceptibility classification, HTFC (E. coli [1]; E. coli EC-bank) | susceptibility classification, HTFC (E. coli [1]; E. coli Mu218) | susceptibility classification, BMD (E. coli [2]; E. coli Blood Culture A) | susceptibility classification, BMD (E. coli [2]; E. coli Blood Culture B) | susceptibility classification, BMD (E. coli [2]; E. coli EC37) | susceptibility classification, BMD (E. coli [2]; E. coli EC-bank) | susceptibility classification, BMD (E. coli [2]; E. coli Mu218) | susceptibility classification, BMD (P. aeruginosa [4]; [21])
0.5 µg/mL: MIC (E. coli [2]; E. coli Mu890)
(I): susceptibility classification, HTFC (E. coli [1]; E. coli Blood Culture A) | susceptibility classification, HTFC (E. coli [1]; E. coli EC37)
16 µg/mL: MIC (E. coli [1]; E. coli EC-bank) | MIC (E. coli [1]; E. coli Mu218) | MIC (E. coli [2]; E. coli Blood Culture A)
4 µg/mL: MIC (P. aeruginosa [3]; [12]) | MIC (P. aeruginosa [3]; [16]) | MIC (P. aeruginosa [4]; [26]) | MIC (P. aeruginosa [4]; [31])
1 µg/mL: MIC (E. coli [1]; E. coli Mu76) | MIC (P. aeruginosa [3]; [18]) | MIC (P. aeruginosa [4]; [27]) | MIC (P. aeruginosa [4]; [29]) | MIC (P. aeruginosa [4]; [32])
8 µg/mL: MIC (E. coli [1]; E. coli Blood Culture A) | MIC (E. coli [1]; E. coli EC37) | MIC (P. aeruginosa [3]; [14]) | MIC (P. aeruginosa [3]; [17])
32 µg/mL: MIC (E. coli [1]; E. coli Blood Culture B) | MIC (E. coli [2]; E. coli EC37) | MIC (E. coli [2]; E. coli EC-bank) | MIC (E. coli [2]; E. coli Mu218)
64 µg/mL: MIC (E. coli [2]; E. coli Blood Culture B)
128 µg/mL: MIC (P. aeruginosa [4]; [28])
(S): susceptibility classification, HTFC (E. coli [1]; E. coli Mu76) | susceptibility classification, HTFC (E. coli [1]; E. coli Mu890) | susceptibility classification, BMD (E. coli [2]; E. coli Mu76) | susceptibility classification, BMD (E. coli [2]; E. coli Mu890) | susceptibility classification, HTFC (P. aeruginosa [3]; [5]) | susceptibility classification, HTFC (P. aeruginosa [3]; [6]) | susceptibility classification, HTFC (P. aeruginosa [3]; [7]) | susceptibility classification, HTFC (P. aeruginosa [3]; [8]) | susceptibility classification, HTFC (P. aeruginosa [3]; [9]) | susceptibility classification, HTFC (P. aeruginosa [3]; [10]) | susceptibility classification, HTFC (P. aeruginosa [3]; [11]) | susceptibility classification, BMD (P. aeruginosa [4]; [19]) | susceptibility classification, BMD (P. aeruginosa [4]; [20]) | susceptibility classification, BMD (P. aeruginosa [4]; [22]) | susceptibility classification, BMD (P. aeruginosa [4]; [23]) | susceptibility classification, BMD (P. aeruginosa [4]; [24]) | susceptibility classification, BMD (P. aeruginosa [4]; [25])
2 µg/mL: MIC (E. coli [2]; E. coli Mu76) | MIC (P. aeruginosa [3]; [13]) | MIC (P. aeruginosa [3]; [15]) | MIC (P. aeruginosa [4]; [30])
≤ 0.25 µg/mL: MIC (E. coli [1]; E. coli Mu890)

C[C@@H](O)[C@H]1C(=O)N2C(C(=O)O)=C(S[C@@H]3CN[C@H](C(=O)N(C)C)C3)[C@H](C)[C@H]12 [Meropenem, meropenem]
0.25 µg/mL: MIC (P. aeruginosa [4]; [27]) | MIC (P. aeruginosa [4]; [29])
1 µg/mL: MIC (P. aeruginosa [3]; [15]) | MIC (P. aeruginosa [4]; [28]) | MIC (P. aeruginosa [4]; P. aeruginosa, strain not named (FIG. 13), read-out: MIC as determined by broth microdilution)
≤ 0.06 µg/mL: MIC (E. coli [1]; E. coli Blood Culture A) | MIC (E. coli [1]; E. coli Blood Culture B) | MIC (E. coli [1]; E. coli EC37) | MIC (E. coli [1]; E. coli EC-bank) | MIC (E. coli [1]; E. coli Mu218) | MIC (E. coli [1]; E. coli Mu890) | MIC (E. coli [2]; E. coli Blood Culture A) | MIC (E. coli [2]; E. coli Blood Culture B) | MIC (E. coli [2]; E. coli EC37) | MIC (E. coli [2]; E. coli Mu218) | MIC (E. coli [2]; E. coli Mu890)
0.125 µg/mL: MIC (P. aeruginosa [3]; [13])
8 µg/mL: MIC (P. aeruginosa [3]; [17]) | MIC (P. aeruginosa [4]; [26]) | MIC (P. aeruginosa [4]; [31])
(R): susceptibility classification, HTFC (E. coli [1]; E. coli Mu76) | susceptibility classification, HTFC (P. aeruginosa [3]; [10]) | susceptibility classification, BMD (P. aeruginosa [4]; [19]) | susceptibility classification, BMD (P. aeruginosa [4]; [24])
0.5 µg/mL: MIC (E. coli [2]; E. coli Mu76) | MIC (P. aeruginosa [3]; [16]) | MIC (P. aeruginosa [4]; [30]) | MIC (P. aeruginosa [4]; [32])
(I): susceptibility classification, BMD (E. coli [2]; E. coli EC-bank)
(S): susceptibility classification, HTFC (E. coli [1]; E. coli Blood Culture A) | susceptibility classification, HTFC (E. coli [1]; E. coli Blood Culture B) | susceptibility classification, HTFC (E. coli [1]; E. coli EC37) | susceptibility classification, HTFC (E. coli [1]; E. coli EC-bank) | susceptibility classification, HTFC (E. coli [1]; E. coli Mu218) | susceptibility classification, HTFC (E. coli [1]; E. coli Mu890) | susceptibility classification, BMD (E. coli [2]; E. coli Blood Culture A) | susceptibility classification, BMD (E. coli [2]; E. coli Blood Culture B) | susceptibility classification, BMD (E. coli [2]; E. coli EC37) | susceptibility classification, BMD (E. coli [2]; E. coli Mu76) | susceptibility classification, BMD (E. coli [2]; E. coli Mu218) | susceptibility classification, BMD (E. coli [2]; E. coli Mu890) | susceptibility classification, HTFC (P. aeruginosa [3]; [5]) | susceptibility classification, HTFC (P. aeruginosa [3]; [6]) | susceptibility classification, HTFC (P. aeruginosa [3]; [7]) | susceptibility classification, HTFC (P. aeruginosa [3]; [8]) | susceptibility classification, HTFC (P. aeruginosa [3]; [9]) | susceptibility classification, HTFC (P. aeruginosa [3]; [11]) | susceptibility classification, BMD (P. aeruginosa [4]; [20]) | susceptibility classification, BMD (P. aeruginosa [4]; [21]) | susceptibility classification, BMD (P. aeruginosa [4]; [22]) | susceptibility classification, BMD (P. aeruginosa [4]; [23]) | susceptibility classification, BMD (P. aeruginosa [4]; [25])
2 µg/mL: MIC (E. coli [2]; E. coli EC-bank) | MIC (P. aeruginosa [3]; [12]) | MIC (P. aeruginosa [3]; [14]) | MIC (P. aeruginosa [3]; [18])
4 µg/mL: MIC (E. coli [1]; E. coli Mu76)
